Measurements from patent publication US20250213528A1, “5-METHOXY-N,N-[…][…] THE TREATMENT OF ANXIETY” (GH RESEARCH IRELAND LIMITED, priority 2022, published 2025).

Key:
[1] = Pharmacokinetics of 5-MeO-DMT and bufotenine after inhalation of 5-MeO-DMT; assay type: in vivo, human
[2] = system: Salmonella typhimurium TA98, TA100, TA1535 and TA1537; assay: Bacterial mutation test, Salmonella typhimurium; assay type: cell-based; conditions: up to 5000 μg/plate, absence and presence of rat liver S-9
Description: (§1) These conditions included treatments at concentrations up to 5000 μg/plate (the maximum recommended concentration according to current regulatory guidelines), in the absence and in the presence of a rat liver metabolic activation system (S-9).

[3] = system: Escherichia coli WP2 uvrA pKM101; assay: Bacterial mutation test, Escherichia coli; assay type: cell-based; conditions: up to 5000 μg/plate, absence and presence of rat liver S-9
Description: as §1

[4] = system: patients with postpartum depression (PPD); assay: Clinical trial of inhaled 5-MeO-DMT in postpartum depression, one patient, IDR 6 mg then 12 mg; assay type: in vivo, human; conditions: n=1
Description: Maternal functioning can, for instance, be assessed using the Barkin Index of Maternal Functioning (BIMF). This index was designed to measure functioning in the year after childbirth. The BIMF is a 20-item self-report measure of functioning. Each item is assigned a score between 0 and 6 so that the maximum total score is 120. The higher the score, the better maternal functioning is rated.
The single-arm, open-label clinical trial will involve 15 adult female patients with clinically diagnosed postpartum depression (PPD).
The second dose (12 mg) will only be administered if: • a. […] The 6 mg dose was safe and well-tolerated according to the investigator, • c. Any psychoactive effects (PsE) of the prior dose have subsided, and • d. Pre-dose vital parameters and forced expiratory volume in one second (FEV1) are in normal range, or if outside of the normal range, are not clinically significant according to the investigator. • 3. Similarly, a third dose (18 mg) will only be administered if: • a. […] The 12 mg dose was safe and well-tolerated according to the investigator, and • c. Any PsE of the prior dose have subsided, and • d. Pre-dose vital parameters and forced expiratory volume in one second (FEV1) are in normal range, or if outside of the normal range, are not clinically significant according to the investigator.
The patients will be assessed for a peak psychedelic experience (based on a patient-scored visual analogue scale, the PE scale), sedation, and other endpoints after dosing. Follow-up visits are planned for Day 1, and Day 7 after the dosing day.
The following criteria must be met by all patients considered for clinical trial participation: • 1. Is female and in the age range between 18 and 45 years (inclusive) at screening. • 2. Has a body mass index (BMI) in the range of 18.5 and 35 kg/m^2 (inclusive) at screening. • 3. Meets the trial criteria for PPD as assessed by a trial psychiatrist or registered psychologist: • a. Diagnosis of Major Depressive Disorder without psychotic features, confirmed by the Mini-International Neuropsychiatric Interview (MINI), with peri-partum onset that began no earlier than gestation and no later than the first 4 weeks postpartum. • b. Has a Montgomery-Åsberg Depression Rating Scale (MADRS) total score of equal to or greater than 28 at screening and pre-dose on Day 0. • 6. […] Patients must have a negative pregnancy test at screening and on the pre-test day (Day-1). • 5. Is willing to delay start of other antidepressant or anxiety medication until after the end of the trial at Day 7 and agrees to keep any psychotherapy unchanged during the trial.
A potential patient who meets any of the following key exclusion criteria will be excluded from participation in this trial: • 1. Has, based on history, psychiatric assessment, and evaluation of the MINI, a current or prior diagnosis of bipolar disorder, a manic or hypomanic episode, a psychotic disorder, Major Depressive Disorder (MDD) or other mood disorder with psychotic features, obsessive compulsive disorder, post-traumatic stress disorder (PTSD), autism spectrum disorder, borderline personality disorder, schizophrenia, delusional disorder, paranoid personality disorder, schizoaffective disorder, clinically significant intellectual disability, or any other psychiatric comorbidity that renders the patient unsuitable for the trial according to the investigator's judgment. • 2. Has one or more first or second degree relatives with a current or previously diagnosed bipolar disorder, psychotic disorder or other mood disorder (including MDD) with psychotic features. • 3.

In the case of `CN(C)CCc1c[nH]c2ccc(O)cc12` [bufotenine], the “bufotenine blood concentration above LLOQ” value ([1]; after inhaled 5-MeO-DMT, LLOQ 25 pg/ml) is reported as “Only in few samples” and the “bufotenine blood concentrations under uptitration” value ([1]; subjects receiving an uptitration scheme included) is reported as “Substantially similar observations”.

For `COc1ccc2[nH]cc(CCN(C)C)c2c1` [5-MeO-DMT], the mutation induction [2] was “did not induce mutation”, the mutation induction [3] was “did not induce mutation” and the “detectability in the plasma” value ([1]; 3 hours after inhalation, whole dose range 6, 12, 18 mg) was “no longer detectable”. The “pharmacokinetic measurements under uptitration” value ([1]; dosing schemes relying on uptitration, compared with single doses) was “Substantially similar results”, the “standard criteria for MADRS remission (MADRS total score equal or less than 10)” value [4] was “fulfilled” and the “standard criteria for MADRS response (at least 50% improvement from baseline)” value [4] was “fulfilled”. For the same molecule, the “time to clinical remission after administration” value [4] was ≤ 2 h, the “durability of clinical response” value ([4]; 5-MeO-DMT given on one day only) was “sustained over the 7-day follow-up period” and the “Total MADRS Improvement” value ([4]; 2 hr) was 24. For the same molecule, the “BPRS Tension Improvement” value ([4]; Day 1) was 5, the “Total MADRS Improvement” value ([4]; Day 1) was 29 and the “Total MADRS Improvement” value ([4]; Day 7) was 28. For the same molecule, the “BIMF item 19 As time goes on, I am getting better at taking care of my baby, score” value ([4]; Day 7, Day 0 score 0) was 1, the “BIMF item 13 I am taking good care of my physical needs, score” value ([4]; Day 7, Day 0 score 4) was 5 and the “BIMF item 5 I am able to relax and enjoy time with my baby, score” value ([4]; Day 7, Day 0 score 5) was 6. The “BIMF item 9 I am getting enough encouragement from other people, score” value ([4]; Day 7, Day 0 score 5) was 6, the “BIMF item 10 I trust my own feelings (instincts) when it comes to taking care of my baby, score” value ([4]; Day 7, Day 0 score 5) was 6 and the “BIMF item 17 I am able to take care of my baby and my other responsibilities, score” value ([4]; Day 7, Day 0 score 5) was 5. For the same molecule, the “BIMF functional domain Adjustment score” value ([4]; Day 7, Day 0 score 5, maximum possible 12) was 6, the “BIMF item 3 I am comfortable with the way I've chosen to feed my baby, score” value ([4]; Day 7, Day 0 score 6) was 6 and the “BIMF item 6 There are people in my life that I can trust to care for my baby when I need a break, score” value ([4]; Day 7, Day 0 score 6) was 6. The “BIMF item 8 I am getting enough adult interaction, score” value ([4]; Day 7, Day 0 score 6) was 6, the “BIMF item 12 I am taking good care of my baby's physical needs, score” value ([4]; Day 7, Day 0 score 6) was 6 and the “BIMF item 14 I make good decisions about my baby's health and well being, score” value ([4]; Day 7, Day 0 score 6) was 6. The “BIMF item 20 I am satisfied with the job I am doing as a new mother, score” value ([4]; Day 7, Day 0 score 6) was 5, the “BIMF functional domain Self Care score” value ([4]; Day 7, Day 0 score 9, maximum possible 18) was 13 and the “BIMF functional domain Infant Care score” value ([4]; Day 7, Day 0 score 12, maximum possible 12) was 12. For the same molecule, the “BIMF functional domain Mother-Child Interaction score” value ([4]; Day 7, Day 0 score 15, maximum possible 18) was 17, the “BIMF functional domain Social Support score” value ([4]; Day 7, Day 0 score 17, maximum possible 18) was 18 and the “BIMF functional domain Management score” value ([4]; Day 7, Day 0 score 28, maximum possible 36) was 33. For the same molecule, the “BIMF functional domain Psychological Well-being score” value ([4]; Day 7, Day 0 score 44, maximum possible 60) was 53, the “BIMF total score improvement” value ([4]; Day 7, from 92 to 105 of possible 120) was 14% and the “BIMF TOTAL, Δ (Day 7)” value ([4]; Day 7 vs Day 0) was 13. For the same molecule, the “BIMF item 3 I am comfortable with the way I've chosen to feed my baby, Δ (Day 7)” value ([4]; Day 7 vs Day 0) was 0, the “BIMF item 5 I am able to relax and enjoy time with my baby, Δ (Day 7)” value ([4]; Day 7 vs Day 0) was 1 and the “BIMF item 6 There are people in my life that I can trust to care for my baby when I need a break, Δ (Day 7)” value ([4]; Day 7 vs Day 0) was 0. For the same molecule, the “BIMF item 8 I am getting enough adult interaction, Δ (Day 7)” value ([4]; Day 7 vs Day 0) was 0, the “BIMF item 9 I am getting enough encouragement from other people, Δ (Day 7)” value ([4]; Day 7 vs Day 0) was 1 and the “BIMF item 10 I trust my own feelings (instincts) when it comes to taking care of my baby, Δ (Day 7)” value ([4]; Day 7 vs Day 0) was 1. The “BIMF item 11 I take a little time each week to do something for myself, Δ (Day 7)” value ([4]; Day 7 vs Day 0) was 1, the “BIMF item 12 I am taking good care of my baby's physical needs, Δ (Day 7)” value ([4]; Day 7 vs Day 0) was 0 and the “BIMF item 13 I am taking good care of my physical needs, Δ (Day 7)” value ([4]; Day 7 vs Day 0) was 1. For the same molecule, the “BIMF item 14 I make good decisions about my baby's health and well being, Δ (Day 7)” value ([4]; Day 7 vs Day 0) was 0, the “BIMF item 17 I am able to take care of my baby and my other responsibilities, Δ (Day 7)” value ([4]; Day 7 vs Day 0) was 0 and the “BIMF item 19 As time goes on, I am getting better at taking care of my baby, Δ (Day 7)” value ([4]; Day 7 vs Day 0) was 1. The “BIMF item 20 I am satisfied with the job I am doing as a new mother, Δ (Day 7)” value ([4]; Day 7 vs Day 0) was −1 and the “BPRS Tension Improvement” value ([4]; Discharge) was 5.
